“And” between values parts separate entries of the source, which are not always exact repeats. Identical values can stand only once. Toxic doses and inconclusive results are not listed. Rule for the calls: active = survival T/C of 150% or more; inactive = T/C below 125% in these data.
Test system: CD2F1 mice, L1210 leukemia ip, survival T/C
Assay: NCI In Vivo Anticancer Drug Screen. Data for tumor model L1210 Leukemia (intraperitoneal) in CD2F1 (CDF1) mice
Conditions: higher = longer survival
Method in brief: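 Implant tumor; dose compound or vehicle; measure endpoint in both groups; report treated divided by control.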

[1] = endpoint: mean survival time, dose: 100.0 mg/kg/injection, schedule: Q04DX003 (ip), vehicle: saline with Tween-80
[2] = endpoint: mean survival time, dose: 200.0 mg/kg/injection, schedule: Q04DX003 (ip), vehicle: saline with Tween-80
[3] = endpoint: mean survival time, dose: 400.0 mg/kg/injection, schedule: Q04DX003 (ip), vehicle: saline with Tween-80
[4] = endpoint: mean survival time, dose: 50.0 mg/kg/injection, schedule: Q01DX009 (ip), vehicle: saline with Tween-80
[5] = endpoint: mean survival time, dose: 100.0 mg/kg/injection, schedule: Q01DX009 (ip), vehicle: saline with Tween-80
[6] = endpoint: mean survival time, dose: 25.0 mg/kg/injection, schedule: Q04DX002 (ip), vehicle: saline with Tween-80
[7] = endpoint: mean survival time, dose: 50.0 mg/kg/injection, schedule: Q04DX002 (ip), vehicle: saline with Tween-80
[8] = endpoint: mean survival time, dose: 25.0 mg/kg/injection, schedule: Q01DX001 (ip), vehicle: saline
[9] = endpoint: mean survival time, dose: 50.0 mg/kg/injection, schedule: Q01DX001 (ip), vehicle: saline
[10] = endpoint: mean survival time, dose: 100.0 mg/kg/injection, schedule: Q01DX001 (ip), vehicle: saline
[11] = endpoint: mean survival time, dose: 100.0 mg/kg/injection, schedule: Q01DX001 (ip), vehicle: saline with Tween-80
[12] = endpoint: mean survival time, dose: 200.0 mg/kg/injection, schedule: Q01DX001 (ip), vehicle: saline with Tween-80
[13] = endpoint: mean survival time, dose: 400.0 mg/kg/injection, schedule: Q01DX001 (ip), vehicle: saline with Tween-80
[14] = endpoint: mean survival time, dose: 100.0 mg/kg/injection, schedule: Q04DX002 (ip), vehicle: saline with Tween-80
[15] = endpoint: mean survival time, dose: 75.0 mg/kg/injection, schedule: Q01DX001 (ip), vehicle: saline
[16] = endpoint: mean survival time, dose: 150.0 mg/kg/injection, schedule: Q01DX001 (ip), vehicle: saline
[17] = endpoint: mean survival time, dose: 200.0 mg/kg/injection, schedule: Q01DX009 (ip), vehicle: saline with Tween-80
[18] = endpoint: mean survival time, dose: 400.0 mg/kg/injection, schedule: Q01DX009 (ip), vehicle: saline with Tween-80

Measured: T/C

CCCCCCCCCCCc1n(Cc2ccccc2)c2ccccc2[n+]1C
inactive: endpoint: mean survival time, dose: 0.25 mg/kg/injection, schedule: Q01DX009 (ip), vehicle: saline 117 % of control | endpoint: mean survival time, dose: 0.25 mg/kg/injection, schedule: Q04DX003 (ip), vehicle: saline 102 % of control | endpoint: mean survival time, dose: 0.5 mg/kg/injection, schedule: Q01DX009 (ip), vehicle: saline 110 % of control | endpoint: mean survival time, dose: 0.5 mg/kg/injection, schedule: Q04DX003 (ip), vehicle: saline 104 % of control | endpoint: mean survival time, dose: 1.0 mg/kg/injection, schedule: Q01DX009 (ip), vehicle: saline 121 % of control | endpoint: mean survival time, dose: 1.0 mg/kg/injection, schedule: Q04DX003 (ip), vehicle: saline 106 % of control

O=C(c1ccccc1)c1c(-c2ccccc2)c(-c2ccccc2)c(-c2ccccc2)c(-c2ccccc2)c1-c1ccccc1
inactive: [1] 89 % of control | [2] 90 % of control | [3] 90 % of control

Cc1cc2sccc2cn1
inactive: endpoint: mean survival time, dose: 25.0 mg/kg/injection, schedule: Q01DX009 (ip), vehicle: saline with Tween-80 100 % of control | [4] 98 % of control | [5] 98 % of control | [1] 90 % of control

Nc1cc(C(=O)O)c(O)c(Cl)c1O
inactive: endpoint: mean survival time, dose: 12.5 mg/kg/injection, schedule: Q04DX002 (ip), vehicle: saline with Tween-80 93 % of control | [6] 90 % of control | [7] 97 % of control

COC(CNCCO)c1ccccc1 (stereo unspecified)
inactive: [8] 97 % of control | [9] 101 % of control | [10] 100 % of control and 106 % of control

CNC(=O)Nc1cc(OC)ccc1OC
inactive: [11] 106 % of control | [12] 106 % of control | [13] 102 % of control

COc1ccc(NC(=O)Nc2cccc(Cl)c2)c(Cl)c1
inactive: [6] 88 % of control | [7] 92 % of control | endpoint: mean survival time, dose: 400.0 mg/kg/injection, schedule: Q04DX002 (ip), vehicle: saline with Tween-80 88 % of control

c1ccc(C2NC2c2ccccc2)cc1 (stereo unspecified)
inactive: endpoint: median survival time, dose: 50.0 mg/kg/injection, schedule: Q04DX002 (ip), vehicle: saline with Tween-80 100 % of control | endpoint: median survival time, dose: 100.0 mg/kg/injection, schedule: Q04DX002 (ip), vehicle: saline with Tween-80 100 % of control | endpoint: median survival time, dose: 200.0 mg/kg/injection, schedule: Q04DX002 (ip), vehicle: saline with Tween-80 100 % of control | endpoint: median survival time, dose: 400.0 mg/kg/injection, schedule: Q04DX002 (ip), vehicle: saline with Tween-80 100 % of control

O.[Co].[NH2-].[NH2-].[NH2-].[NH2-].[NH2-]
inactive: [6] 93 % of control | [14] 90 % of control | endpoint: mean survival time, dose: 100.0 mg/kg/injection, schedule: Q04DX002 (ip), vehicle: saline 98 % of control

CCOC(=O)c1cccc(N(CCOS(C)(=O)=O)CCOS(C)(=O)=O)c1
inactive: endpoint: mean survival time, dose: 2.0 mg/kg/injection, schedule: Q01DX010 (ip), vehicle: saline 100 % of control | endpoint: mean survival time, dose: 4.0 mg/kg/injection, schedule: Q01DX010 (ip), vehicle: saline 106 % of control | endpoint: mean survival time, dose: 8.0 mg/kg/injection, schedule: Q01DX010 (ip), vehicle: saline 119 % of control | endpoint: mean survival time, dose: 16.0 mg/kg/injection, schedule: Q01DX010 (ip), vehicle: saline 121 % of control | [9] 98 % of control | [10] 101 % of control | endpoint: mean survival time, dose: 200.0 mg/kg/injection, schedule: Q01DX001 (ip), vehicle: saline 101 % of control

O=C1C=C(N2CCOCC2)c2ccccc2C1=O
inactive: [15] 100 % of control | [16] 94 % of control

C/C=C(/Cl)C(=O)O
inactive: [11] 100 % of control | [12] 101 % of control

Nc1ccc(NC(=O)Nc2ccccc2)cc1
inactive: endpoint: mean survival time, dose: 100.0 mg/kg/injection, schedule: Q01DX001 (ip), vehicle: Klucel (hydroxypropylcellulose) (HPC) 88 % of control | endpoint: mean survival time, dose: 200.0 mg/kg/injection, schedule: Q01DX001 (ip), vehicle: Klucel (hydroxypropylcellulose) (HPC) 96 % of control | endpoint: mean survival time, dose: 400.0 mg/kg/injection, schedule: Q01DX001 (ip), vehicle: Klucel (hydroxypropylcellulose) (HPC) 96 % of control

CC1(C)Oc2nc[nH]c(=O)c2C1c1ccccc1 (stereo unspecified)
inactive: [5] 115 % of control | [1] 101 % of control | [17] 107 % of control | [2] 101 % of control | [18] 98 % of control | [3] 98 % of control

CCOC(=O)N1CC2CCC(C1)N2C
inactive: endpoint: mean survival time, dose: 100.0 mg/kg/injection, schedule: Q04DX003 (ip), vehicle: saline 93 % of control

O=C(C[n+]1ccccc1)c1ccccc1
inactive: [8] 102 % of control | [9] 106 % of control | [10] 96 % of control and 97 % of control | [14] 96 % of control

CC(=O)Nc1ccc(Br)cn1
inactive: [11] 97 % of control | [12] 105 % of control | [13] 102 % of control

COc1cc(C=C(C(C)=O)C(C)=O)ccc1O
inactive: [4] 98 % of control | [5] 101 % of control | [17] 98 % of control

CCOC(=O)CCC1(C(=O)OC)C(=O)CCCCCCC1C(=O)OC (stereo unspecified)
inactive: [5] 102 % of control | [17] 101 % of control | [18] 93 % of control

CC(C)OC(=O)Nc1cc(C(F)(F)F)cc(C(F)(F)F)c1
inactive: [5] 113 % of control | [17] 94 % of control | [18] 92 % of control

CCOC(=O)Nc1cc(Cl)c2nnn(C3OC(CO)C(O)C3O)c2n1 (stereo unspecified)
inactive: endpoint: mean survival time, dose: 12.5 mg/kg/injection, schedule: Q01DX005 (ip), vehicle: water 90 % of control | endpoint: mean survival time, dose: 25.0 mg/kg/injection, schedule: Q01DX005 (ip), vehicle: water 94 % of control | endpoint: mean survival time, dose: 50.0 mg/kg/injection, schedule: Q01DX005 (ip), vehicle: water 86 % of control | endpoint: mean survival time, dose: 100.0 mg/kg/injection, schedule: Q01DX005 (ip), vehicle: water 96 % of control | endpoint: mean survival time, dose: 200.0 mg/kg/injection, schedule: Q01DX005 (ip), vehicle: water 90 % of control

Cn1c(/C=C/C(=O)O)cc2ccccc21
inactive: [15] 108 % of control | [16] 106 % of control | endpoint: mean survival time, dose: 300.0 mg/kg/injection, schedule: Q01DX001 (ip), vehicle: saline 106 % of control

[Cl][Sn]([c]1ccccc1)([c]1ccccc1)[c]1ccccc1
inactive: endpoint: mean survival time, dose: 2.5 mg/kg/injection, schedule: Q04DX003 (ip), vehicle: saline 91 % of control | endpoint: mean survival time, dose: 5.0 mg/kg/injection, schedule: Q04DX003 (ip), vehicle: saline 100 % of control | endpoint: mean survival time, dose: 10.0 mg/kg/injection, schedule: Q04DX003 (ip), vehicle: saline with Tween-80 97 % of control | endpoint: mean survival time, dose: 10.0 mg/kg/injection, schedule: Q04DX003 (ip), vehicle: saline 96 % of control
